From ChEMBL document CHEMBL1201862, “PubChem BioAssay data set” (2004)
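Each compound was tested at five concentrations against cells in 96-well plates for 48 hours. GI50 marks 50% less growth.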 Active and inactive are the calls of the source. No stated cut-off is given here; in the data, active = GI50 up to about 1.1 µM and inactive = higher.

Experiments:
Test in all cases: inhibition of tumour cell growth, NCI panel, 48 h
SN12C = system: SN12C
IGROV-1 = system: IGROV-1
SNB-75 = system: SNB-75
SW-620 = system: SW-620
MDA-N = system: MDA-N
MDA-MB-231 = system: MDA-MB-231
SF-268 = system: SF-268
DU-145 = system: DU-145
PC-3 = system: PC-3
BT-549 = system: BT-549
HCT-15 = system: HCT-15
UACC-62 = system: UACC-62
HCT-116 = system: HCT-116
OVCAR-3 = system: OVCAR-3
A549 = system: A549
786-0 = system: 786-0
HOP-62 = system: HOP-62
SK-MEL-28 = system: SK-MEL-28
MDA-MB-435 = system: MDA-MB-435
HL-60 = system: HL-60
NCI-H460 = system: NCI-H460
HT-29 = system: HT-29
SNB-19 = system: SNB-19
CAKI-1 = system: CAKI-1
NCI/ADR-RES = system: NCI/ADR-RES
CCRF-CEM = system: CCRF-CEM
HOP-92 = system: HOP-92
TK-10 = system: TK-10
COLO 205 = system: COLO 205
HCC 2998 = system: HCC 2998
UACC-257 = system: UACC-257
ACHN = system: ACHN
NCI-H226 = system: NCI-H226
SK-MEL-5 = system: SK-MEL-5
OVCAR-4 = system: OVCAR-4
LOX IMVI = system: LOX IMVI
SK-MEL-2 = system: SK-MEL-2
EKVX = system: EKVX
RXF 393 = system: RXF 393
SF-539 = system: SF-539
OVCAR-8 = system: OVCAR-8
M14 = system: M14
KM12 = system: KM12
MCF7 = system: MCF7
MOLT-4 = system: MOLT-4
SF-295 = system: SF-295
NCI-H23 = system: NCI-H23
Hs-578T = system: Hs-578T
SK-OV-3 = system: SK-OV-3
U-251 = system: U-251
OVCAR-5 = system: OVCAR-5
NCI-H522 = system: NCI-H522
UO-31 = system: UO-31
RPMI-8226 = system: RPMI-8226
A498 = system: A498
K562 = system: K562
SR = system: SR
Malme-3M = system: Malme-3M
T47D = system: T47D

SMILES: COc1cccc(CC2C(=O)N/C(=N\C(C)=O)N2C)c1OC(C)=O (centres undefined)
- GI50 (SN12C): > 100 µM (inactive)
- GI50 (IGROV-1): > 100 µM (inactive)
- GI50 (SNB-75): > 100 µM (inactive)
- GI50 (SW-620): > 100 µM (inactive)
- GI50 (MDA-N): > 100 µM (inactive)
- GI50 (MDA-MB-231): > 100 µM (inactive)
- GI50 (SF-268): > 100 µM (inactive)
- GI50 (DU-145): > 100 µM (inactive)
- GI50 (PC-3): > 100 µM (inactive)
- GI50 (BT-549): > 100 µM (inactive)
- GI50 (HCT-15): > 100 µM
- GI50 (UACC-62): > 100 µM (inactive)
- GI50 (HCT-116): > 100 µM (inactive)
- GI50 (OVCAR-3): > 100 µM (inactive)
- GI50 (A549): > 100 µM (inactive)
- GI50 (786-0): > 100 µM (inactive)
- GI50 (HOP-62): > 100 µM (inactive)
- GI50 (SK-MEL-28): 39 µM (inactive)
- GI50 (MDA-MB-435): > 100 µM (inactive)
- GI50 (HL-60): > 100 µM (inactive)
- GI50 (NCI-H460): > 100 µM (inactive)
- GI50 (HT-29): > 100 µM (inactive)
- GI50 (SNB-19): > 100 µM (inactive)
- GI50 (CAKI-1): > 100 µM (inactive)
- GI50 (NCI/ADR-RES): > 100 µM (inactive)
- GI50 (CCRF-CEM): > 100 µM (inactive)
- GI50 (HOP-92): > 100 µM (inactive)
- GI50 (TK-10): > 100 µM (inactive)
- GI50 (COLO 205): > 100 µM (inactive)
- GI50 (HCC 2998): > 100 µM (inactive)
- GI50 (UACC-257): > 100 µM (inactive)
- GI50 (ACHN): > 100 µM (inactive)
- GI50 (NCI-H226): > 100 µM (inactive)
- GI50 (SK-MEL-5): > 100 µM (inactive)
- GI50 (OVCAR-4): > 100 µM (inactive)
- GI50 (LOX IMVI): > 100 µM (inactive)
- GI50 (SK-MEL-2): > 100 µM (inactive)
- GI50 (EKVX): 44 µM (inactive)
- GI50 (RXF 393): > 100 µM (inactive)
- GI50 (SF-539): > 100 µM (inactive)
- GI50 (OVCAR-8): > 100 µM (inactive)
- GI50 (M14): > 100 µM (inactive)
- GI50 (KM12): > 100 µM (inactive)
- GI50 (MCF7): > 100 µM (inactive)
- GI50 (MOLT-4): > 100 µM (inactive)
- GI50 (SF-295): > 100 µM (inactive)
- GI50 (NCI-H23): > 100 µM (inactive)
- GI50 (Hs-578T): > 100 µM (inactive)
- GI50 (SK-OV-3): > 100 µM (inactive)
- GI50 (U-251): > 100 µM (inactive)
- GI50 (OVCAR-5): > 100 µM (inactive)
- GI50 (NCI-H522): > 100 µM (inactive)
- GI50 (UO-31): > 100 µM (inactive)

SMILES: CCOP(=O)(OCC)/C(C#N)=C/c1cnc(-c2ccccc2)[nH]1
- GI50 (SN12C): > 100 µM (inactive)
- GI50 (IGROV-1): > 100 µM (inactive)
- GI50 (SNB-75): > 100 µM (inactive)
- GI50 (SW-620): > 100 µM (inactive)
- GI50 (MDA-N): > 100 µM (inactive)
- GI50 (MDA-MB-231): > 100 µM (inactive)
- GI50 (SF-268): > 100 µM (inactive)
- GI50 (DU-145): > 100 µM (inactive)
- GI50 (PC-3): > 100 µM (inactive)
- GI50 (BT-549): > 100 µM (inactive)
- GI50 (HCT-15): > 100 µM
- GI50 (UACC-62): > 100 µM (inactive)
- GI50 (HCT-116): > 100 µM (inactive)
- GI50 (RPMI-8226): > 100 µM (inactive)
- GI50 (OVCAR-3): > 100 µM (inactive)
- GI50 (A549): > 100 µM (inactive)
- GI50 (A498): > 100 µM (inactive)
- GI50 (786-0): > 100 µM (inactive)
- GI50 (HOP-62): > 100 µM (inactive)
- GI50 (SK-MEL-28): > 100 µM (inactive)
- GI50 (K562): > 100 µM (inactive)
- GI50 (MDA-MB-435): 24.7 µM (inactive)
- GI50 (HL-60): > 100 µM (inactive)
- GI50 (NCI-H460): > 100 µM (inactive)
- GI50 (HT-29): > 100 µM (inactive)
- GI50 (SNB-19): > 100 µM (inactive)
- GI50 (CAKI-1): > 100 µM (inactive)
- GI50 (NCI/ADR-RES): > 100 µM (inactive)
- GI50 (CCRF-CEM): > 100 µM (inactive)
- GI50 (HOP-92): > 100 µM (inactive)
- GI50 (COLO 205): > 100 µM (inactive)
- GI50 (HCC 2998): > 100 µM (inactive)
- GI50 (UACC-257): > 100 µM (inactive)
- GI50 (ACHN): > 100 µM (inactive)
- GI50 (NCI-H226): > 100 µM (inactive)
- GI50 (SK-MEL-5): 82.8 µM (inactive)
- GI50 (OVCAR-4): > 100 µM (inactive)
- GI50 (LOX IMVI): > 100 µM (inactive)
- GI50 (SK-MEL-2): > 100 µM (inactive)
- GI50 (EKVX): > 100 µM (inactive)
- GI50 (RXF 393): > 100 µM (inactive)
- GI50 (SF-539): 0.0887 µM (active)
- GI50 (SR): > 100 µM (inactive)
- GI50 (OVCAR-8): > 100 µM (inactive)
- GI50 (M14): > 100 µM (inactive)
- GI50 (KM12): > 100 µM (inactive)
- GI50 (MCF7): > 100 µM (inactive)
- GI50 (MOLT-4): > 100 µM (inactive)
- GI50 (SF-295): > 100 µM (inactive)
- GI50 (NCI-H23): 79.6 µM (inactive)
- GI50 (Hs-578T): > 100 µM (inactive)
- GI50 (SK-OV-3): > 100 µM (inactive)
- GI50 (U-251): > 100 µM (inactive)
- GI50 (OVCAR-5): > 100 µM (inactive)
- GI50 (NCI-H522): > 100 µM (inactive)
- GI50 (UO-31): > 100 µM (inactive)
- GI50 (Malme-3M): > 100 µM (inactive)

SMILES: CCN(C(=O)N[C@H](C(=O)N[C@@H](CSC)C(=O)N[C@@H](C)C(=O)OC)C(C)C)c1ccccc1
- GI50 (SN12C): 17.9 µM (inactive)
- GI50 (IGROV-1): 10.4 µM (inactive)
- GI50 (SNB-75): 12.4 µM (inactive)
- GI50 (SW-620): 14.6 µM (inactive)
- GI50 (MDA-N): 17.3 µM (inactive)
- GI50 (MDA-MB-231): 15.1 µM (inactive)
- GI50 (DU-145): 17.4 µM (inactive)
- GI50 (PC-3): 16.9 µM (inactive)
- GI50 (BT-549): 18.1 µM (inactive)
- GI50 (HCT-15): 17.8 µM
- GI50 (UACC-62): 13.8 µM (inactive)
- GI50 (HCT-116): 16.7 µM (inactive)
- GI50 (T47D): 26.4 µM (inactive)
- GI50 (OVCAR-3): 20 µM (inactive)
- GI50 (A549): 23.6 µM (inactive)
- GI50 (786-0): 17.2 µM (inactive)
- GI50 (HOP-62): 19.8 µM (inactive)
- GI50 (SK-MEL-28): 15.3 µM (inactive)
- GI50 (K562): 13.1 µM (inactive)
- GI50 (MDA-MB-435): 14.7 µM (inactive)
- GI50 (NCI-H460): 15.8 µM (inactive)
- GI50 (HT-29): 13.2 µM (inactive)
- GI50 (SNB-19): 19.3 µM (inactive)
- GI50 (CAKI-1): 20 µM (inactive)
- GI50 (NCI/ADR-RES): > 100 µM (inactive)
- GI50 (CCRF-CEM): 2.94 µM (inactive)
- GI50 (HOP-92): 12.8 µM (inactive)
- GI50 (TK-10): 13.6 µM (inactive)
- GI50 (COLO 205): 17.9 µM (inactive)
- GI50 (HCC 2998): 19.6 µM (inactive)
- GI50 (UACC-257): 12.4 µM (inactive)
- GI50 (ACHN): 15.6 µM (inactive)
- GI50 (NCI-H226): 16.3 µM (inactive)
- GI50 (SK-MEL-5): 16.7 µM (inactive)
- GI50 (OVCAR-4): 20 µM (inactive)
- GI50 (LOX IMVI): 10.4 µM (inactive)
- GI50 (SK-MEL-2): 20.3 µM (inactive)
- GI50 (EKVX): 13.5 µM (inactive)
- GI50 (RXF 393): 17.7 µM (inactive)
- GI50 (SF-539): 19.6 µM (inactive)
- GI50 (SR): 3.83 µM (inactive)
- GI50 (OVCAR-8): 17.2 µM (inactive)
- GI50 (M14): 14.2 µM (inactive)
- GI50 (KM12): 15.3 µM (inactive)
- GI50 (MCF7): 16.1 µM (inactive)
- GI50 (MOLT-4): 8.3 µM (inactive)
- GI50 (SF-295): 17.9 µM (inactive)
- GI50 (NCI-H23): 17.8 µM (inactive)
- GI50 (SK-OV-3): 15 µM (inactive)
- GI50 (U-251): 15.9 µM (inactive)
- GI50 (OVCAR-5): 15.5 µM (inactive)
- GI50 (NCI-H522): 10.2 µM (inactive)
- GI50 (UO-31): 17.5 µM (inactive)
- GI50 (Malme-3M): 12.8 µM (inactive)
